# According to PMC12155096 (International Journal of Molecular Sciences, 2025):
# Where a name gives a salt, the structure may show the parent alone.
# Biological target: T1, human CYP1A2 (Homo sapiens, UniProt P05177)
# T1 sequence (P05177 1-516): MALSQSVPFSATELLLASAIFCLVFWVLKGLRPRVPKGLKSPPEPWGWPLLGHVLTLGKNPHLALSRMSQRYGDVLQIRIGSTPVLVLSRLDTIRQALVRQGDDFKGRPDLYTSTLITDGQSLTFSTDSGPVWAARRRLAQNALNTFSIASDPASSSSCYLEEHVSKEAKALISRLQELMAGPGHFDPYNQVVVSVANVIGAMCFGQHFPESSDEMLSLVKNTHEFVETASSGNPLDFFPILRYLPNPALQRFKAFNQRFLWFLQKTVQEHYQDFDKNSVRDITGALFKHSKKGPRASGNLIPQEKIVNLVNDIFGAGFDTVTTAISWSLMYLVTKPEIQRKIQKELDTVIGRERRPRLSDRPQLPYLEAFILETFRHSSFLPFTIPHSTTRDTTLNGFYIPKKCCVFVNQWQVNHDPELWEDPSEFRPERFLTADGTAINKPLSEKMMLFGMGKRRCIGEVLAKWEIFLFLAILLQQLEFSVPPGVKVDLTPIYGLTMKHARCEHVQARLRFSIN
# Experiment: biochemical
# Settings: CYP1A2 AC50 (half-maximal activity concentration)
row,SMILES,AC50 [µM]
1,CN(C)C(=S)SC(=S)N(C)C [Tetramethylthiuram monosulfide],41.9
2,Cc1c(Cl)cccc1Nc1ccccc1C(=O)O [Tolfenamic acid],34.8

# Same assay, conditions: CYP1A2 IC50 (half-maximal inhibitory concentration)
row,SMILES,IC50 [µM]
1,CNCCC(Oc1ccc(C(F)(F)F)cc1)c1ccccc1 (stereo not shown) [Fluoxetine hydrochloride],20.9
2,CCOc1cc(N)c(Cl)cc1C(=O)NCC1CN(Cc2ccc(F)cc2)CCO1 (stereo not shown) [Mosapride citrate],1.14
3,CCCOC(=O)c1cncn1C(C)c1ccccc1 (stereo not shown) [Propoxate],18.9
4,"Fc1ccc([C@@H]2CCNC[C@H]2COc2ccc3c(c2)OCO3)cc1 [paroxetine, reference compound]",15.2

# Same assay, conditions: IC50 CYP1A2 assay
row,SMILES,IC50 [µM]
1,"c1ccc2[nH]c(-c3cscn3)nc2c1 [thiabendazole, reference compound]",2.1

# Biological target: human CYP2C9 (Homo sapiens, UniProt P11712)
# Sequence (P11712 whole entry): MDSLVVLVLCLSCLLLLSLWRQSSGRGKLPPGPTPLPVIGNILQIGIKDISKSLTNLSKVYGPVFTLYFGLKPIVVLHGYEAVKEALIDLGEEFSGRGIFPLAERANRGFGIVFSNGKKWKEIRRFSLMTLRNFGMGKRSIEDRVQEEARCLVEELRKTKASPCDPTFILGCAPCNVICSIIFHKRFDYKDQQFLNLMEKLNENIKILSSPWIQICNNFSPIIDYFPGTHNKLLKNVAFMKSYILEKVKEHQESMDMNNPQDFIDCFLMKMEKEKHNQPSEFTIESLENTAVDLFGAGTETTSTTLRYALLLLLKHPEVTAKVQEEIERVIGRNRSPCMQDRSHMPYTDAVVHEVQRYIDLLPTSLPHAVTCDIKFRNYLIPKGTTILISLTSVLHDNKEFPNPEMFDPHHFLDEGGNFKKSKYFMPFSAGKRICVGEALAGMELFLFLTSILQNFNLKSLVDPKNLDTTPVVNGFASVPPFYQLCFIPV
# Experiment: biochemical
# Settings: not given
SMILES,IC50 [µM],AC50 [µM]
COC(=O)N[C@H](C(=O)N[C@@H](Cc1ccccc1)[C@@H](O)CN(Cc1ccc(-c2ccccn2)cc1)NC(=O)[C@@H](NC(=O)OC)C(C)(C)C)C(C)(C)C [Atazanavir],15.5,–
C[C@]12CCC(=O)C=C1[C@@H]1C[C@@H]1[C@H]1[C@@H]3[C@@H]4C[C@@H]4[C@@]4(CCC(=O)O4)[C@@]3(C)CC[C@@H]12 [Drospirenone],–,26.4 ± 7.81
COc1cc([C@@H]2c3cc4c(cc3[C@H](O)[C@H]3COC(=O)[C@H]23)OCO4)cc(OC)c1OC [Podofilox],1.97,–
CCCc1ccc(OCC(=O)N2CCN(C(=O)COc3ccc(CCC)cc3OC)CC2)c(OC)c1 [Simetride],6.41 ± 6.45,–

# Same assay, conditions: CYP2C9 AC50 (half-maximal activity concentration)
row,SMILES,AC50 [µM]
1,CCC(C)(C)c1ccc(O)cc1 [4-(2-Methylbutan-2-yl)phenol],14.8
2,Sc1ncnc2nc[nH]c12 [6-Mercaptopurine],22
3,CC(C)(c1ccc(O)cc1)c1ccc(O)cc1 [Bisphenol A],29.1
4,CC1(C)C(C=C(Cl)Cl)C1C(=O)OC(C#N)c1cccc(Oc2ccccc2)c1 (stereo not shown) [Cypermethrin],11.9
5,CCCSP(=O)(OCC)SCCC [Ethoprop],37
6,Cl[C@H]1[C@H](Cl)[C@@H](Cl)[C@@H](Cl)[C@H](Cl)[C@H]1Cl [Lindane],43.2
7,Cc1nc2ccccc2c(=O)n1-c1ccccc1Cl [Mecloqualone],37.7
8,COCC(=O)N(c1c(C)cccc1C)C(C)C(=O)OC (stereo not shown) [Metalaxyl],59.1
9,CC(=O)Oc1ccc(C2(c3ccc(OC(C)=O)cc3)C(=O)Nc3ccccc32)cc1 [Oxyphenisatin acetate],5.5
10,CN1C(CSCC(F)(F)F)Nc2cc(Cl)c(S(N)(=O)=O)cc2S1(=O)=O (stereo not shown) [Polythiazide],14.9
11,CCC(=O)O[C@H]1CC[C@H]2[C@@H]3CCC4=CC(=O)CC[C@]4(C)[C@H]3CC[C@]12C [Testosterone propionate],30.9
12,CN(C)C(=S)SC(=S)N(C)C [Tetramethylthiuram monosulfide],24.3
13,Cc1c(Cl)cccc1Nc1ccccc1C(=O)O [Tolfenamic acid],21
14,CC1(C)C(C=C(Cl)Cl)C1C(=O)OC(C#N)c1cccc(Oc2ccccc2)c1 (stereo not drawn) [alpha-Cypermethrin],3.56

# Same assay, conditions: CYP2C9 IC50 (half-maximal inhibitory concentration)
row,SMILES,IC50 [µM]
1,CC(C)C[C@H]1C(=O)N2CCC[C@H]2[C@]2(O)O[C@](NC(=O)[C@@H]3C=C4c5cccc6[nH]c(Br)c(c56)C[C@H]4N(C)C3)(C(C)C)C(=O)N12 [Bromocriptine mesylate],7.32
2,CNCCC(Oc1ccc(C(F)(F)F)cc1)c1ccccc1 (stereo not shown) [Fluoxetine hydrochloride],34.2
3,CCOC(=O)C1=C(C)NC(C)=C(C(=O)OC)C1c1cccc([N+](=O)[O-])c1 (stereo not shown) [Nitrendipine],0.88
4,CCCOC(=O)c1cncn1C(C)c1ccccc1 (stereo not shown) [Propoxate],13.3

# Biological target: human CYP2C19 (Homo sapiens, UniProt P33261)
# Sequence (P33261 whole entry): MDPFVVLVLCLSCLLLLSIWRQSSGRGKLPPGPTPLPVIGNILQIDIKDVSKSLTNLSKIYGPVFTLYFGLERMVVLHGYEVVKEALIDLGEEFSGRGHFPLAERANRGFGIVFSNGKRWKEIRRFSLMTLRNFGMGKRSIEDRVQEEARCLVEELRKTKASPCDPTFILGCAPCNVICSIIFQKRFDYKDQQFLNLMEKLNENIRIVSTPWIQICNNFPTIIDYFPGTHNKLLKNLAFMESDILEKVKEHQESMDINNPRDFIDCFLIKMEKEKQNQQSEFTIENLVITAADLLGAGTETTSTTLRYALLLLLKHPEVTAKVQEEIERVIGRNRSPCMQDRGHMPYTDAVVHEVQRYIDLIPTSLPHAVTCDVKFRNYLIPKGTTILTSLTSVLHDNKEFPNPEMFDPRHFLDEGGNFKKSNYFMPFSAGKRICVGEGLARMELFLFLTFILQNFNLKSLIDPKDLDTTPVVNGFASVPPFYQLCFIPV
# Experiment: biochemical
# Settings: not given
SMILES,IC50 [µM],AC50 [µM]
COC(=O)N[C@H](C(=O)N[C@@H](Cc1ccccc1)[C@@H](O)CN(Cc1ccc(-c2ccccn2)cc1)NC(=O)[C@@H](NC(=O)OC)C(C)(C)C)C(C)(C)C [Atazanavir],36.4 ± 6.55,–
C[C@]12CCC(=O)C=C1[C@@H]1C[C@@H]1[C@H]1[C@@H]3[C@@H]4C[C@@H]4[C@@]4(CCC(=O)O4)[C@@]3(C)CC[C@@H]12 [Drospirenone],–,1.17 ± 0.35
CC(=O)Oc1ccc2c(c1)CC[C@@H]1[C@@H]2CC[C@]2(C)[C@@H](O)CC[C@@H]12 [Estradiol acetate],–,20.6 ± 4.65
CCCc1ccc(OCC(=O)N2CCN(C(=O)COc3ccc(CCC)cc3OC)CC2)c(OC)c1 [Simetride],17 ± 19.1,–

# Same assay, conditions: CYP2C19 AC50 (half-maximal activity concentration)
row,SMILES,AC50 [µM]
1,CCC(C)(C)c1ccc(O)cc1 [4-(2-Methylbutan-2-yl)phenol],4.21
2,Sc1ncnc2nc[nH]c12 [6-Mercaptopurine],34.7
3,CC(C)(c1ccc(O)cc1)c1ccc(O)cc1 [Bisphenol A],20
4,CC1(C)C(C=C(Cl)Cl)C1C(=O)OC(C#N)c1cccc(Oc2ccccc2)c1 (stereo not shown) [Cypermethrin],24.6
5,CCCSP(=O)(OCC)SCCC [Ethoprop],20
6,Cl[C@H]1[C@H](Cl)[C@@H](Cl)[C@@H](Cl)[C@H](Cl)[C@H]1Cl [Lindane],35.7
7,CN(C)C(=O)C(CCN1CCC(O)(c2ccc(Cl)cc2)CC1)(c1ccccc1)c1ccccc1 [Loperamide hydrochloride],40.5
8,Cc1nc2ccccc2c(=O)n1-c1ccccc1Cl [Mecloqualone],2.88
9,COCC(=O)N(c1c(C)cccc1C)C(C)C(=O)OC (stereo not shown) [Metalaxyl],38.4
10,CC(=O)Oc1ccc(C2(c3ccc(OC(C)=O)cc3)C(=O)Nc3ccccc32)cc1 [Oxyphenisatin acetate],11.9
11,CN1C(CSCC(F)(F)F)Nc2cc(Cl)c(S(N)(=O)=O)cc2S1(=O)=O (stereo not shown) [Polythiazide],22
12,CCC(=O)O[C@H]1CC[C@H]2[C@@H]3CCC4=CC(=O)CC[C@]4(C)[C@H]3CC[C@]12C [Testosterone propionate],26
13,CN(C)C(=S)SC(=S)N(C)C [Tetramethylthiuram monosulfide],22.8
14,CC1(C)C(C=C(Cl)Cl)C1C(=O)OC(C#N)c1cccc(Oc2ccccc2)c1 (stereo not drawn) [alpha-Cypermethrin],6.44

# Same assay, conditions: CYP2C19 IC50 (half-maximal inhibitory concentration)
row,SMILES,IC50 [µM]
1,CC(C)C[C@H]1C(=O)N2CCC[C@H]2[C@]2(O)O[C@](NC(=O)[C@@H]3C=C4c5cccc6[nH]c(Br)c(c56)C[C@H]4N(C)C3)(C(C)C)C(=O)N12 [Bromocriptine mesylate],20.8
2,CCOc1cc(N)c(Cl)cc1C(=O)NCC1CN(Cc2ccc(F)cc2)CCO1 (stereo not shown) [Mosapride citrate],9
3,CCOC(=O)C1=C(C)NC(C)=C(C(=O)OC)C1c1cccc([N+](=O)[O-])c1 (stereo not shown) [Nitrendipine],1.4
4,COc1cc([C@@H]2c3cc4c(cc3[C@H](O)[C@H]3COC(=O)[C@H]23)OCO4)cc(OC)c1OC [Podofilox],3.71
5,CCCOC(=O)c1cncn1C(C)c1ccccc1 (stereo not shown) [Propoxate],3.09
